Reference: patent US7157498B2, “Diamines having a CaSR modulating activity” (Centre National de la Recherche Scientifique (CNRS), priority 2000, dated 2007)

Legend:
CaSR [1] = biological target: T1, CaSR (Rattus norvegicus, UniProt P48442); assay: Accumulation of tritiated inositol phosphates [3H]IP induced by 9 mM extracellular Ca2+ in transfected CHO(CaSR) cells; type: cell-based; conditions: for inhibition of the accumulation of [^3H]IP induced by 9 mM (Ca^2+)e / type of activity on production of [^3H]IP (calcimimetic/calcilytic): 10 μM compound, 9 mM (Ca2+)e; for inhibition of the accumulation of [^3H]IP induced by 9 mM (Ca^2+)e / remaining activity at 10 µM: CHO(CaSR) cells; for remaining activity at 10 µM: 0.5 h, compounds at 10 μM, induced by 9 mM Ca2+, control = 9 mM (Ca2+)e alone = 100, mean of 2 to 4 experiments, read-out: Accumulation of [^3H]IP % relative to the control
T1 construct: expressed in transfected cells; host or cells: CHO (Chinese hamster ovary) cells
T1 sequence (P48442 20-1079): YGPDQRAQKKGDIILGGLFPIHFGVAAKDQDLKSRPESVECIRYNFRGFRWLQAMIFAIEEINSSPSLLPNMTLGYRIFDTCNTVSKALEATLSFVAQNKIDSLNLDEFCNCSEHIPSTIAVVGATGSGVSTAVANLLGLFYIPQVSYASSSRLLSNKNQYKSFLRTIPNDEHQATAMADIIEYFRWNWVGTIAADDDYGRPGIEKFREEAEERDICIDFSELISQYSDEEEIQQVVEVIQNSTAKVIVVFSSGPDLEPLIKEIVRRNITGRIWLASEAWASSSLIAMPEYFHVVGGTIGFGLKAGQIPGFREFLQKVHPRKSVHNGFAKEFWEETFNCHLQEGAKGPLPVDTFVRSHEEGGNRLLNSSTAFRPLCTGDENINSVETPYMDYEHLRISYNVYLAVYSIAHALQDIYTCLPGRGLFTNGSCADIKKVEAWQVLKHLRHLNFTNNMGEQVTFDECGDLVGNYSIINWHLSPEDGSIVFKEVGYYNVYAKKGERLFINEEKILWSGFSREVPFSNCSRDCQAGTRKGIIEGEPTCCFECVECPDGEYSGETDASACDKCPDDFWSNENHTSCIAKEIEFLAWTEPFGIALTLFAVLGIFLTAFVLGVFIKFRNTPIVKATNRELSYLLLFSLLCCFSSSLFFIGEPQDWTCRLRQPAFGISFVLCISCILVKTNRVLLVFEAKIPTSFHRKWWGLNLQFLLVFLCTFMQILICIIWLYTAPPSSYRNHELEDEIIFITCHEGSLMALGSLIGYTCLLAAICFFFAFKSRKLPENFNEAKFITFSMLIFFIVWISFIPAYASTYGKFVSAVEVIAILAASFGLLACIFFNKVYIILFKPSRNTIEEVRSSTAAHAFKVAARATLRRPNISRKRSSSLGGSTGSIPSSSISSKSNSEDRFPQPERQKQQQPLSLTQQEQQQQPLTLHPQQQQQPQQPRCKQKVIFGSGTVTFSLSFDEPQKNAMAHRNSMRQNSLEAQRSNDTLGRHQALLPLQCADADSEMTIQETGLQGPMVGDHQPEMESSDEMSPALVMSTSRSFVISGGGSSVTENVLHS
Text: Complementary DNA encoding rat CaSR has been isolated from a rat striatum cDNA library (Ruat et al., Proc. Natl. Acad. Sci., 1995, vol. 92, p. 3161–3165). This receptor is identical with respect to its amino acid sequence to that expressed in the other tissues. Transfected Chinese hamster ovary_(CHO) cells expressing rat CaSR(CHO(CaSR)) have been characterized and the chemical signals (second messengers) induced by the activation of this receptor have been analyzed. Thus, a biochemical test which makes it possible to measure the accumulation of tritiated inositol phosphates [^3H]IP in response to the activation of the receptor has been developed (Ruat et al., J. Biol. Chem., 1996, vol. 271, p. 5972–5975; Ferry et al., Biochem. Biophys. Res. Commun., 1997, vol. 238, p. 866–873).
The technique for measuring the accumulation of tritiated inositol phosphates [^3H]IP which is used is that described in Ruat et al., J. Biol. Chem., 1996, vol. 271, p. 5972-5975. Only the mode of incubating the compounds is modified. After a preincubation of 15 min of the compounds according to the invention in the presence of a basal concentration of (Ca^2+)e equal to 2 mM, the compounds are incubated for 30 min in the presence of a (Ca^2+)e concentration of 4 or 9 mM. The results, mean of 2 to 4 independent experiments each carried out in triplicate, are grouped together in Table 2.
The activity of the compounds is expressed as a percentage of the control activity measured in the presence of (Ca^2+)e alone of concentration 4 mM or 9 mM.

CaSR [2] = biological target: T1, CaSR; assay: Specificity: [3H]IP accumulation by compound alone in CHO(CaSR) cells, relative to basal level at 2 mM Ca2+; type: cell-based; conditions: compound alone at 10 μM; CHO(CaSR) cells (sentence also names control CHO(WT*) cells)
Description: (§1) To assess the specificity of the antagonist activity of the molecules according to the invention, the effect of one of them, PHD 263, was studied under various calcium conditions, in the presence or otherwise of ATP on CHO(WT*) and CHO(CaSR) cells. […] The accumulation of tritiated inositol phosphates is expressed as a percentage of the basal level observed in the presence of 2 mM Ca^2+ (100) in the CHO(WT*) or CHO(CaSR) cells.

CHO(WT*) cells = assay: Specificity: [3H]IP accumulation in control CHO(WT*) cells not expressing CaSR, various calcium, with or without ATP; type: cell-based, Chinese hamster; conditions: PHD 263 10 μM
Description: as §1
PHD 263 (10 μM) has the same effect on the [^3H]IP response in the CHO(WT*) cells in the presence of 2 or 4 mM calcium, indicating an absence of a nonspecific effect of the compound linked to the variation of [Ca^2+]e.

[3] = test system: cell proliferation in the parathyroid gland; conditions: rat model reproducing chronic renal insufficiency; cited from earlier work
[4] = clinical trials Phase I-II; cited from earlier work

COc1ccc(S(=O)(=O)NC2CCCC[C@@H]2NC(C)c2cccc3ccccc23)cc1.Cl (some centres unmarked) [PHD 263, N1-(4-methoxybenzenesulfonyl)-N-2-[1-(1-naphthyl)ethyl]cyclohexane-1,2-diamine]
inhibition of the accumulation of [^3H]IP induced by 9 mM (Ca^2+)e (CaSR [1]): 64%
remaining activity at 10 µM (CaSR [1]): 37 ± 5%
accumulation of [^3H]IP as percentage of the basal level observed at 2 mM Ca2+ (100) (CaSR [2]): 124±10%
effect on the ATP-induced [^3H]IP response (CHO(WT*) cells; CHO(WT) cells, in the presence of ATP): adds to that of ATP
effect on the [^3H]IP response at 2 versus 4 mM calcium (CHO(WT*) cells; CHO(WT*) cells, 2 or 4 mM calcium): same effect
melting point: 135 to 140 °C (dec.)

CC(N[C@H]1CCCCC1NS(=O)(=O)c1cccc(Cl)c1)c1cccc2ccccc12 (some centres unmarked) [AK 116]
remaining activity at 10 µM (CaSR [1]): 40 ± 5%

CC(N[C@H]1CCCCC1NS(=O)(=O)c1ccccc1Cl)c1cccc2ccccc12 (some centres unmarked) [PHD 350]
inhibition of the accumulation of [^3H]IP induced by 9 mM (Ca^2+)e (CaSR [1]): 25%
remaining activity at 10 µM (CaSR [1]): 74 ± 2%

CC(N[C@H]1CCCCC1NS(=O)(=O)c1ccc(OC(F)(F)F)cc1)c1cccc2ccccc12.Cl (some centres unmarked) [PHD 401]
inhibition of the accumulation of [^3H]IP induced by 9 mM (Ca^2+)e (CaSR [1]): 82%
remaining activity at 10 µM (CaSR [1]): 18 ± 3%

CC(N[C@H]1CCCCC1NS(=O)(=O)c1ccc([N+](=O)[O-])cc1)c1cccc2ccccc12 (some centres unmarked) [PHD 397]
remaining activity at 10 µM (CaSR [1]): 43 ± 1%

CC(N[C@H]1CCCCC1NCc1ccccc1Cl)c1cccc2ccccc12.Cl.Cl (some centres unmarked) [PHD 346]
type of activity on production of [^3H]IP (calcimimetic/calcilytic) (CaSR [1]): calcimimetic activity
remaining activity at 10 µM (CaSR [1]): 110 ± 6%

COc1ccc(OC)c(S(=O)(=O)NC2CCCC[C@@H]2NC(C)c2cccc3ccccc23)c1 (some centres unmarked) [AK 115]
remaining activity at 10 µM (CaSR [1]): 100 ± 4%

COc1cccc([C@@H](C)NCCCc2ccccc2Cl)c1 [NPS-R-568]
reduction of cell proliferation observed in the parathyroid gland [3]: 20–50%
bioavailability [4]: low bioavailability

CC(N[C@H]1CCCCC1NS(=O)(=O)c1ccc(Cl)c(Cl)c1Cl)c1cccc2ccccc12 (some centres unmarked) [AK 117]
remaining activity at 10 µM (CaSR [1]): 42 ± 5%

CC(N[C@H]1CCCCC1NS(=O)(=O)c1ccccc1)c1cccc2ccccc12 (some centres unmarked) [PHD 408]
remaining activity at 10 µM (CaSR [1]): 56 ± 4%

CC(N[C@H]1CCCCC1NCc1ccc(F)cc1)c1cccc2ccccc12.Cl.Cl (some centres unmarked) [PHD 348]
type of activity on production of [^3H]IP (calcimimetic/calcilytic) (CaSR [1]): calcimimetic activity
remaining activity at 10 µM (CaSR [1]): 119 ± 12%

COc1ccc(S(=O)(=O)NC2CCCC[C@@H]2NC(C)c2cccc3ccccc23)cc1OC (some centres unmarked) [PHD 349]
remaining activity at 10 µM (CaSR [1]): 64 ± 5%

CC(N[C@H]1CCCCC1NS(=O)(=O)c1ccc(C(F)(F)F)cc1)c1cccc2ccccc12 (some centres unmarked) [PHD 403]
remaining activity at 10 µM (CaSR [1]): 21 ± 1%

CC(N[C@H]1CCCCC1NS(=O)(=O)c1ccc(Cl)cc1)c1cccc2ccccc12 (some centres unmarked) [PHD 406]
remaining activity at 10 µM (CaSR [1]): 28 ± 1%

COc1ccc(S(=O)(=O)NC2CC=CC[C@@H]2NC(C)c2cccc3ccccc23)cc1 (some centres unmarked) [PHD 511]
remaining activity at 10 µM (CaSR [1]): 75 ± 10%

CC(N[C@H]1CCCCC1NS(=O)(=O)c1ccc2ccccc2c1)c1cccc2ccccc12 (some centres unmarked) [PHD 404]
remaining activity at 10 µM (CaSR [1]): 39 ± 7%
